Consider 14 compounds from PubChem BioAssay (NCI).

Among the test systems are A498 renal; COLO 205 colon; EKVX NSCLC; HOP-62 NSCLC; IGROV1 ovarian; K-562 leukemia; MDA-N; NCI/ADR-RES ovarian; SF-295 CNS; SK-MEL-28 melanoma; HCT-15 colon.
Common to all, as to test: growth of human tumour cells (NCI), 48 h

Each structure is given as a SMILES string.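 Compound exposure: 48 hours, 5 concentrations, 96-well plates. TGI denotes the concentration required for complete inhibition of growth.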 A value given as a limit tells only on which side of the number the result lay.

In the case of `O=C1CCCCC/C1=C\c1cccc([N+](=O)[O-])c1`, the TGI in the experiment with A498 renal was over 100 µM; in the experiment with COLO 205 colon it was over 100 µM; in the experiment with EKVX NSCLC it was over 100 µM; with HOP-62 NSCLC, over 100 µM; in the experiment on IGROV1 ovarian, 50.4 µM; in the experiment with K-562 leukemia it was over 100 µM. In addition, the TGI in the experiment with MDA-N is over 100 µM; with NCI/ADR-RES ovarian it was 95.5 µM; with SF-295 CNS, 50.4 µM; in the experiment on SK-MEL-28 melanoma, over 100 µM.

For the compound `Clc1ccc2nc3n[nH]c(Cl)c3nc2c1`, the TGI in the experiment on A498 renal was over 100 µM; in the experiment with COLO 205 colon, over 100 µM; in the experiment with EKVX NSCLC it was 85.4 µM; with HCT-15 colon, over 100 µM; in the experiment with HOP-62 NSCLC, over 100 µM; in the experiment on K-562 leukemia it was over 100 µM. Also, the TGI with MDA-N, in the experiment on NCI/ADR-RES ovarian, in the experiment with SF-295 CNS and with SK-MEL-28 melanoma was over 100 µM throughout.

`C=CC(C)(C)C1(CC(OC)OC)C(=O)N(C)c2ccccc21` (configuration not stated): the TGI in the experiment on A498 renal, with COLO 205 colon, in the experiment with EKVX NSCLC, in the experiment on HCT-15 colon, in the experiment on HOP-62 NSCLC and in the experiment with K-562 leukemia was over 25 µM in each case. In addition, the TGI in the experiment on MDA-N, in the experiment with NCI/ADR-RES ovarian, in the experiment with SF-295 CNS and with SK-MEL-28 melanoma was over 25 µM each time.

As to `CCn1c(-c2ccc(OC)cc2)nc2c1C(=O)c1ccccc1C2=O`, the TGI in the experiment with COLO 205 colon, in the experiment with EKVX NSCLC, in the experiment on HCT-15 colon, with HOP-62 NSCLC, with IGROV1 ovarian and with K-562 leukemia was over 100 µM throughout. For the same compound, the TGI in the experiment on MDA-N, in the experiment with NCI/ADR-RES ovarian, in the experiment with SF-295 CNS and in the experiment on SK-MEL-28 melanoma was over 100 µM each time.

As for `O=C(NNS(=O)(=O)c1ccc(Br)cc1)c1ccc(Cl)cc1NC(=O)C12CC3CC(CC(C3)C1)C2`, the TGI in the experiment on A498 renal turned out to be 29 µM; with COLO 205 colon, 24.5 µM; with EKVX NSCLC it was 27.3 µM; in the experiment with HCT-15 colon it was 45.4 µM; in the experiment with HOP-62 NSCLC it was 47.8 µM; in the experiment on IGROV1 ovarian, 24.7 µM. Besides, the TGI with K-562 leukemia came out at 24.4 µM; in the experiment with MDA-N, 32.2 µM; with NCI/ADR-RES ovarian, 32.5 µM; with SF-295 CNS, 29.3 µM.

With `O=C(OCC1CCCN2CCCCC12)c1cccnc1` (configuration not stated), the TGI with A498 renal, in the experiment on COLO 205 colon, in the experiment with EKVX NSCLC, in the experiment with HCT-15 colon, in the experiment with K-562 leukemia and in the experiment with MDA-N was over 100 µM in each case. In addition, the TGI in the experiment with NCI/ADR-RES ovarian, in the experiment with SF-295 CNS and with SK-MEL-28 melanoma was over 100 µM in each case.

Take `C[C@]12C(=O)C=CCC1=CC[C@@H]1[C@@H]2[C@H]2CC3(O)C(=O)O[C@@]4(C)[C@H]5C[C@@]6(C)[C@@H]7[C@@]2(O)[C@]1(OC[C@H]6C(=O)O5)O[C@]734` (some centres not stated): the TGI in the experiment with A498 renal, with COLO 205 colon, with EKVX NSCLC, in the experiment with HCT-15 colon, in the experiment with IGROV1 ovarian and in the experiment with K-562 leukemia was over 100 µM throughout. Besides, the TGI in the experiment with MDA-N, in the experiment on NCI/ADR-RES ovarian, with SF-295 CNS and with SK-MEL-28 melanoma was over 100 µM each time.

Turning to `CC1(C)Oc2ccc3c(=O)cc(-c4cccs4)oc3c2C1C(=O)O` (configuration not stated), the TGI in the experiment with A498 renal, with COLO 205 colon, with EKVX NSCLC, with HOP-62 NSCLC, in the experiment with IGROV1 ovarian and with K-562 leukemia was over 100 µM each time. Besides, the TGI with MDA-N, in the experiment with NCI/ADR-RES ovarian and in the experiment on SF-295 CNS was over 100 µM in each case.

With `COC(=O)c1ccccc1NC(=S)NN(C)C`, the TGI with A498 renal, in the experiment on COLO 205 colon, with EKVX NSCLC, in the experiment on HCT-15 colon, with IGROV1 ovarian and in the experiment on K-562 leukemia was over 100 µM in each case. The TGI with MDA-N, with NCI/ADR-RES ovarian, with SF-295 CNS and with SK-MEL-28 melanoma was over 100 µM in each case.

Regarding `CCCCC(=C=C(C)CO)C1CCCN1C(=O)OC(C)(C)C` (configuration not stated), the TGI with COLO 205 colon came out at 32.9 µM; in the experiment on EKVX NSCLC, 44 µM; in the experiment with HCT-15 colon, 39 µM; with HOP-62 NSCLC it was 39.1 µM; in the experiment with IGROV1 ovarian, 43.6 µM; in the experiment on K-562 leukemia, 38.4 µM. The TGI in the experiment with MDA-N was 34.2 µM; in the experiment on NCI/ADR-RES ovarian, 42.5 µM; with SF-295 CNS it was 31.7 µM; in the experiment on SK-MEL-28 melanoma, 36 µM.

With `C/C=C/c1cc2c(c(=O)o1)C(=O)[C@@H](O)[C@H](C)O2`, the TGI in the experiment with A498 renal turned out to be 16.9 µM; in the experiment on COLO 205 colon, 25.7 µM; with EKVX NSCLC, 31 µM; in the experiment on HCT-15 colon it was 25.9 µM; in the experiment with HOP-62 NSCLC, 60.8 µM; with IGROV1 ovarian, 23.3 µM. Further, the TGI is over 100 µM with K-562 leukemia, 32.3 µM in the experiment on NCI/ADR-RES ovarian, 41.6 µM in the experiment on SF-295 CNS and 29.5 µM with SK-MEL-28 melanoma.

Regarding `Cc1nc(N)sc1C(=O)Nc1ncn[nH]1`, the TGI in the experiment with COLO 205 colon, with EKVX NSCLC, in the experiment with HCT-15 colon, with HOP-62 NSCLC, in the experiment with IGROV1 ovarian and in the experiment on K-562 leukemia was over 100 µM in each case. Besides, the TGI in the experiment with MDA-N, with NCI/ADR-RES ovarian, in the experiment with SF-295 CNS and with SK-MEL-28 melanoma was over 100 µM each time.

As to `CCCc1n[nH]c(=O)n1N1C(=O)C=CC1=O`, the TGI in the experiment with A498 renal, in the experiment with COLO 205 colon, in the experiment on EKVX NSCLC, with HCT-15 colon, in the experiment with HOP-62 NSCLC and with IGROV1 ovarian was over 100 µM each time. Further, the TGI with K-562 leukemia, in the experiment on MDA-N and in the experiment with SF-295 CNS was over 100 µM in each case.

As to `Nc1nc2c(c(-c3ccccc3Cl)n1)COC/C2=C\c1ccccc1Cl`, the TGI with A498 renal turned out to be 30.6 µM; in the experiment on COLO 205 colon, 30.1 µM; with EKVX NSCLC, 35.2 µM; in the experiment with HCT-15 colon, 39.9 µM; in the experiment with HOP-62 NSCLC, 32.2 µM; in the experiment on IGROV1 ovarian it was 34 µM. The TGI in the experiment with K-562 leukemia amounted to 32 µM; with MDA-N, 24.1 µM; with NCI/ADR-RES ovarian, 33 µM; with SF-295 CNS it was 27.7 µM.
